Measured values taken from PubChem BioAssay (NCI).
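Five concentrations, 48 hours, 96-well plates. At the GI50, growth is halved. TGI: total growth inhibition.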

Experiments:
Experiment in all cases: NCI-60 cell line screen, 48 h
MDA-MB-435 = tested on: MDA-MB-435
NCI-H460 lung = tested on: NCI-H460 lung
NCI/ADR-RES ovarian = tested on: NCI/ADR-RES ovarian
A549 NSCLC = tested on: A549 NSCLC
NCI-H522 lung = tested on: NCI-H522 lung
SN12C renal = tested on: SN12C renal
HOP-92 NSCLC = tested on: HOP-92 NSCLC
SF-539 CNS = tested on: SF-539 CNS
K-562 leukemia = tested on: K-562 leukemia
MDA-MB-231 breast = tested on: MDA-MB-231 breast
PC-3 prostate = tested on: PC-3 prostate
M14 melanoma = tested on: M14 melanoma
UACC-62 melanoma = tested on: UACC-62 melanoma
CCRF-CEM leukemia = tested on: CCRF-CEM leukemia
OVCAR-3 ovarian = tested on: OVCAR-3 ovarian
RPMI-8226 leukemia = tested on: RPMI-8226 leukemia
KM12 colon = tested on: KM12 colon
UO-31 renal = tested on: UO-31 renal
IGROV1 ovarian = tested on: IGROV1 ovarian
EKVX NSCLC = tested on: EKVX NSCLC
HCT-15 colon = tested on: HCT-15 colon
ACHN renal = tested on: ACHN renal
U251 CNS = tested on: U251 CNS
SNB-75 CNS = tested on: SNB-75 CNS
T-47D breast = tested on: T-47D breast
HOP-62 NSCLC = tested on: HOP-62 NSCLC
SF-295 CNS = tested on: SF-295 CNS
SF-268 CNS = tested on: SF-268 CNS
786-0 renal = tested on: 786-0 renal
SK-MEL-28 melanoma = tested on: SK-MEL-28 melanoma
DU-145 prostate = tested on: DU-145 prostate
UACC-257 melanoma = tested on: UACC-257 melanoma
TK-10 renal = tested on: TK-10 renal
CAKI-1 renal = tested on: CAKI-1 renal
MOLT-4 leukemia = tested on: MOLT-4 leukemia
NCI-H226 lung = tested on: NCI-H226 lung
SNB-19 CNS = tested on: SNB-19 CNS
SK-OV-3 ovarian = tested on: SK-OV-3 ovarian
SK-MEL-5 melanoma = tested on: SK-MEL-5 melanoma
SR leukemia = tested on: SR leukemia
SW-620 colon = tested on: SW-620 colon
HS 578T breast = tested on: HS 578T breast
OVCAR-4 ovarian = tested on: OVCAR-4 ovarian
HCT-116 colon = tested on: HCT-116 colon
HCC-2998 colon = tested on: HCC-2998 colon
COLO 205 colon = tested on: COLO 205 colon
RXF 393 renal = tested on: RXF 393 renal
BT-549 breast = tested on: BT-549 breast
OVCAR-5 ovarian = tested on: OVCAR-5 ovarian
HT29 colon = tested on: HT29 colon
OVCAR-8 ovarian = tested on: OVCAR-8 ovarian
MCF7 breast = tested on: MCF7 breast
SK-MEL-2 melanoma = tested on: SK-MEL-2 melanoma
NCI-H23 lung = tested on: NCI-H23 lung
A498 renal = tested on: A498 renal
LOX IMVI melanoma = tested on: LOX IMVI melanoma

`O=c1[nH]nc(-c2nn(-c3ccc(Cl)cc3)cc2O)o1` was tested. Which GI50 (MDA-MB-435) did it give?
The GI50 was 20.5 nM.

And the GI50 (NCI-H460 lung)?
The GI50 was 42.9 nM.

What about the TGI (NCI-H460 lung) of the same compound?
Its TGI is greater than 100000 nM.

What about the GI50 (NCI/ADR-RES ovarian) of the same compound?
The GI50 was 121 nM.

What about the TGI (NCI/ADR-RES ovarian) of the same compound?
The TGI was 2750 nM.

What about the GI50 (A549 NSCLC) of the same compound?
Its GI50 is 91.3 nM.

And the TGI (A549 NSCLC)?
The TGI was greater than 100000 nM.

What about the GI50 (NCI-H522 lung) of the same compound?
Its GI50 is 696 nM.

And the TGI (NCI-H522 lung)?
The TGI was greater than 100000 nM.

And the GI50 (SN12C renal)?
Its GI50 is 119 nM.

And the TGI (SN12C renal)?
Its TGI is 5770 nM.

What about the GI50 (HOP-92 NSCLC) of the same compound?
Its GI50 is 280 nM.

And the GI50 (SF-539 CNS)?
The GI50 was 74.1 nM.

And the TGI (SF-539 CNS)?
The TGI was 2240 nM.

And the GI50 (K-562 leukemia)?
The GI50 was 46 nM.

What about the GI50 (MDA-MB-231 breast) of the same compound?
The GI50 was 4560 nM.

What about the TGI (MDA-MB-231 breast) of the same compound?
Its TGI is greater than 50400 nM.

And the GI50 (PC-3 prostate)?
Its GI50 is 401 nM.

And the TGI (PC-3 prostate)?
Its TGI is greater than 100000 nM.

And the GI50 (M14 melanoma)?
The GI50 was 132 nM.

What about the TGI (M14 melanoma) of the same compound?
Its TGI is 13000 nM.

What about the GI50 (UACC-62 melanoma) of the same compound?
Its GI50 is 166 nM.

And the TGI (UACC-62 melanoma)?
Its TGI is 2820 nM.

And the GI50 (CCRF-CEM leukemia)?
Its GI50 is 303 nM.

What about the TGI (CCRF-CEM leukemia) of the same compound?
Its TGI is greater than 62100 nM.

What about the GI50 (OVCAR-3 ovarian) of the same compound?
Its GI50 is 472 nM.

And the TGI (OVCAR-3 ovarian)?
The TGI was 12500 nM.

And the GI50 (RPMI-8226 leukemia)?
The GI50 was 172 nM.

What about the GI50 (KM12 colon) of the same compound?
Its GI50 is 134 nM.

What about the GI50 (UO-31 renal) of the same compound?
The GI50 was 331 nM.

What about the TGI (UO-31 renal) of the same compound?
The TGI was greater than 34300 nM.

And the GI50 (IGROV1 ovarian)?
Its GI50 is 117 nM.

What about the TGI (IGROV1 ovarian) of the same compound?
The TGI was greater than 100000 nM.

And the GI50 (EKVX NSCLC)?
The GI50 was 92.5 nM.

And the TGI (EKVX NSCLC)?
Its TGI is 904 nM.

What about the GI50 (HCT-15 colon) of the same compound?
The GI50 was 152 nM.

What about the TGI (HCT-15 colon) of the same compound?
The TGI was greater than 100000 nM.

What about the GI50 (ACHN renal) of the same compound?
The GI50 was 142 nM.

What about the TGI (ACHN renal) of the same compound?
The TGI was greater than 100000 nM.

And the GI50 (U251 CNS)?
The GI50 was 25 nM.

And the TGI (U251 CNS)?
Its TGI is greater than 100000 nM.

What about the GI50 (SNB-75 CNS) of the same compound?
Its GI50 is 227 nM.

And the TGI (SNB-75 CNS)?
The TGI was greater than 100000 nM.

And the GI50 (T-47D breast)?
The GI50 was 221 nM.

And the TGI (T-47D breast)?
The TGI was greater than 100000 nM.

What about the GI50 (HOP-62 NSCLC) of the same compound?
The GI50 was 99 nM.

What about the TGI (HOP-62 NSCLC) of the same compound?
Its TGI is 36000 nM.

What about the GI50 (SF-295 CNS) of the same compound?
The GI50 was 51.8 nM.

What about the TGI (SF-295 CNS) of the same compound?
The TGI was greater than 100000 nM.

And the GI50 (SF-268 CNS)?
Its GI50 is 117 nM.

And the TGI (SF-268 CNS)?
The TGI was greater than 100000 nM.

What about the GI50 (786-0 renal) of the same compound?
The GI50 was 519 nM.

What about the TGI (786-0 renal) of the same compound?
The TGI was 36500 nM.

And the GI50 (SK-MEL-28 melanoma)?
Its GI50 is 25100 nM.

What about the TGI (SK-MEL-28 melanoma) of the same compound?
Its TGI is greater than 100000 nM.

And the GI50 (DU-145 prostate)?
Its GI50 is 56.2 nM.

What about the TGI (DU-145 prostate) of the same compound?
The TGI was 1450 nM.

What about the GI50 (UACC-257 melanoma) of the same compound?
Its GI50 is 610 nM.

And the TGI (UACC-257 melanoma)?
Its TGI is greater than 100000 nM.

What about the GI50 (TK-10 renal) of the same compound?
The GI50 was 37.6 nM.

What about the TGI (TK-10 renal) of the same compound?
Its TGI is 276 nM.

What about the GI50 (CAKI-1 renal) of the same compound?
The GI50 was 156 nM.

What about the TGI (CAKI-1 renal) of the same compound?
Its TGI is 13000 nM.

What about the GI50 (MOLT-4 leukemia) of the same compound?
The GI50 was 53.7 nM.

And the TGI (MOLT-4 leukemia)?
The TGI was 944 nM.

And the GI50 (NCI-H226 lung)?
The GI50 was 133 nM.

What about the TGI (NCI-H226 lung) of the same compound?
The TGI was 3730 nM.

What about the GI50 (SNB-19 CNS) of the same compound?
The GI50 was 187 nM.

What about the TGI (SNB-19 CNS) of the same compound?
Its TGI is greater than 100000 nM.

What about the GI50 (SK-OV-3 ovarian) of the same compound?
Its GI50 is 385 nM.

What about the TGI (SK-OV-3 ovarian) of the same compound?
Its TGI is greater than 100000 nM.

What about the GI50 (SK-MEL-5 melanoma) of the same compound?
The GI50 was 201 nM.

And the TGI (SK-MEL-5 melanoma)?
Its TGI is 1440 nM.

And the GI50 (SR leukemia)?
Its GI50 is 33.4 nM.

And the TGI (SR leukemia)?
The TGI was 266 nM.

What about the GI50 (SW-620 colon) of the same compound?
The GI50 was 470 nM.

What about the TGI (SW-620 colon) of the same compound?
Its TGI is greater than 100000 nM.

What about the GI50 (HS 578T breast) of the same compound?
The GI50 was 61.9 nM.

And the TGI (HS 578T breast)?
The TGI was 3160 nM.

And the TGI (OVCAR-4 ovarian)?
The TGI was greater than 100000 nM.

What about the GI50 (HCT-116 colon) of the same compound?
Its GI50 is 71.8 nM.

And the TGI (HCT-116 colon)?
The TGI was 927 nM.

What about the GI50 (HCC-2998 colon) of the same compound?
The GI50 was 238 nM.

What about the TGI (HCC-2998 colon) of the same compound?
The TGI was 3500 nM.

What about the GI50 (COLO 205 colon) of the same compound?
The GI50 was 3250 nM.

What about the TGI (COLO 205 colon) of the same compound?
Its TGI is greater than 100000 nM.

And the GI50 (RXF 393 renal)?
The GI50 was 741 nM.

What about the TGI (RXF 393 renal) of the same compound?
Its TGI is greater than 72400 nM.

And the GI50 (BT-549 breast)?
The GI50 was 19.1 nM.

What about the TGI (BT-549 breast) of the same compound?
The TGI was 219 nM.

What about the GI50 (OVCAR-5 ovarian) of the same compound?
Its GI50 is 499 nM.

And the TGI (OVCAR-5 ovarian)?
Its TGI is greater than 100000 nM.

What about the GI50 (HT29 colon) of the same compound?
Its GI50 is 2020 nM.

What about the TGI (HT29 colon) of the same compound?
The TGI was greater than 100000 nM.

And the GI50 (OVCAR-8 ovarian)?
Its GI50 is 317 nM.

And the TGI (OVCAR-8 ovarian)?
Its TGI is greater than 100000 nM.

What about the GI50 (MCF7 breast) of the same compound?
Its GI50 is 340 nM.

What about the TGI (MCF7 breast) of the same compound?
Its TGI is greater than 100000 nM.

What about the GI50 (SK-MEL-2 melanoma) of the same compound?
Its GI50 is 536 nM.

And the TGI (SK-MEL-2 melanoma)?
Its TGI is 46200 nM.

And the GI50 (NCI-H23 lung)?
Its GI50 is 108 nM.

What about the TGI (NCI-H23 lung) of the same compound?
The TGI was 673 nM.

And the GI50 (A498 renal)?
The GI50 was 87 nM.

And the TGI (A498 renal)?
Its TGI is 464 nM.

What about the GI50 (LOX IMVI melanoma) of the same compound?
The GI50 was 194 nM.

What about the TGI (LOX IMVI melanoma) of the same compound?
Its TGI is greater than 43300 nM.
